“Also recorded” adds a separate entry of the source. Ends that are not written are not given here.

One test has as its system 4T1 murine TNBC cells. Put plainly: Real-time cell viability assay (xCELLigence RTCA). Format: cell-based. The settings on record: serum-free media, dose-dependent, representative of N = 3. As for the experimental part: Three thousand cells were seeded in the wells of an xCELLigence RTCA E-plate 16 (Agilent, Santa Clara, CA). After the cells adhered to the plate, the media was replaced with serum-free media, and the cells were treated with CKS1 at the indicated concentrations. The viability of the cells was monitored using the xCELLigence RTCA analyzer (Agilent).

For a further test, the system named is HUVECs. Put plainly: BrdU incorporation cell proliferation assay. As to conditions: at a concentration in which CKS1 did not induce LDH release, N = 3. In kind it is cell-based, human. As for the experimental part:
One thousands cells were seeded in wells of a 96-well plate. The cells were treated with the indicated concentration of CKS1 immediately after seeding. Forty-eight hours later, 5-bromo-2’-deoxyuridine (BrdU) was added to each well. Twenty four hours later, BrdU incorporation was quantified using the BrdU cell proliferation assay kit (Cell Signaling Technology, Danvers, MA) following the manufacturer’s instructions.
(Dividing cells build labelled thymidine or BrdU into new DNA.)

Test [1] deals with 4T1 cells. Put plainly: Transmission electron microscopy of treated cells. In kind it is cell-based, murine. As to conditions: 100 µM. As for the experimental part:
Samples were fixed in 2.5% glutaraldehyde, 3 mM MgCl2 in 0.1 M sodium cacodylate buffer, pH 7.2 overnight at 4 °C. After buffer rinse, samples were postfixed in 2% osmium tetroxide in 0.1 M sodium cacodylate for at least 1 h (no more than two) on ice in the dark. After osmium, samples were rinsed in 0.1 M Maleate buffer (pH 6.2), followed by uranyl acetate in 0.1 M Maleate (0.22 µm filtered, 1 h, dark), dehydrated in a graded series of ethanol and embedded in Epon (PolySci) resin. Samples were polymerized at 60 °C overnight. Thin sections, 60–90 nm, were cut with a diamond knife on a Leica UCT ultramicrotome and picked up with 2 × 1 mm Formvar copper slot grids. Grids were stained with 2% uranyl acetate (aq.) followed by lead citrate and observed with a Hitachi 7600 TEM at 80 kV. Images were captured with an AMT CCD XR80 (8-megapixel camera—side mount AMT XR80—high-resolution high-speed camera).

For test [2], the system named is 4T1 cells. Briefly: Calcein-AM live cell imaging of cytosol release. Format: cell-based, murine. On the procedure:
(§1) Fluorescence labeling of cells was performed by seeding 5.0 × 10^4 4T1 cells in a 35 mm dish on a collagen-coated No. 1.5 coverslip with a 14 mm glass diameter (MatTek, Ashland, MA). After overnight incubation, the cells were washed once with serum-free media and replaced with fresh serum-free media. For cell cytosol labeling, Calcein-AM (Thermo Fisher Scientific, C1430) was added at a final concentration of 5 µg/mL and incubated for 10 min. For mitochondrial membrane labeling, JC-1 (Thermo Fisher Scientific, T3168) was added at a final concentration of 10 µg/mL and incubated for 10 min. To monitor the activity of caspases, CellEvent Caspase-3/7 Red detection reagents (Thermo Fisher Scientific, C10423) were used following the manufacturer’s instructions. For nuclear staining, Hoechst 33342 (Cell Signaling Technology, #4082) was added at a final concentration of 5 µg/mL and incubated for 10 min.
Cells were imaged on either a Zeiss LSM 700 or a 3i spinning disk confocal microscope. Samples were imaged with optimized microscope settings. Z-stack, time-lapse, or multi-channel acquisition settings were adjusted based on the experimental requirements. Images were then acquired with the appropriate excitation and emission wavelengths for each fluorophore.
Image processing was performed using Fiji software. For each image/video, the brightness and the contrast were adjusted. The time stamp and the scale bar were added. For quantification, CellProfiler was used. After cell segmentation based on the nucleus, the intensity of the signal of interest was quantified for each cell. Based on the intensity, each cells were labeled as positive or negative and the fraction of positive cells was calculated.

In the next test the test system is caspase-3 or caspase-7. Put plainly: CellEvent Caspase-3/7 live cell imaging. In kind it is cell-based, murine. As to conditions: 4T1 cells, 100 µM. As for the experimental part: as §1
Cells were imaged on either a Zeiss LSM 700 or a 3i spinning disk confocal microscope. Samples were imaged with optimized microscope settings. […]
Image processing was performed using Fiji software. […] For quantification, CellProfiler was used. After cell segmentation based on the nucleus, the intensity of the signal of interest was quantified for each cell. Based on the intensity, each cells were labeled as positive or negative and the fraction of positive cells was calculated.

The subject of the next test is 4T1 tumors. Put plainly: 4T1 triple breast cancer model, intratumoral treatment. Format: in vivo, Balb/c mice. On the procedure:
(§2) The protocols used in this study were approved by the Institutional Care and Use Committee at Johns Hopkins Medical Institutions. Four- to eight-week-old female Balb/c mice were obtained from Charles River (Wilmington, MA). For the 4T1 […] model, 2.5 × 10^4 4T1 cells were injected into the first mammary fat pad of each mouse. For the CT26 colon carcinoma model, 1.0 × 10^6 CT26 cells were injected subcutaneously in the left flank. The sample size was determined so that the final distribution would be close to normal distribution. After 1 week, the animals were randomized into control and CKS1 treatment. During the randomization, the mice were kept in a cage covered with cloth so that the investigator could not see the tumor size. We started daily intratumoral treatment with 40 mg/kg CKS1. For the control group, the matching volume of water was treated intratumorally. The tumor size was measured by using a caliper, and the volume was calculated by using the formula 0.52 × (length) × (width)^2.
Tumors were fixed by immersion in 10% neutral buffered formalin (Millipore Sigma) for 48 h and subsequently dehydrated by immersion in 70%, 90%, and 100% ethanol followed by xylene for two changes of 30 min each. Tissues were embedded in paraffin blocks at 58 °C and sectioned at 4 μm using a microtome. […]

The subject of another test is CT26 tumors. Briefly: CT26 colon carcinoma model, intratumoral treatment. In kind it is in vivo, Balb/c mice. As to conditions: 40 mg/kg intratumoral daily from day 7, N = 10. On the procedure:
as §2

As for “NGRKACLNPASPIVKKIIEKMLNS-NH2 [CKS1, Chemokinostatin-1]”, in the test on 4T1 murine TNBC cells, the “time to cell death (reduction in cell index) after treatment” value is reported as no more than 1 h. The “cell proliferation (BrdU incorporation)” value with HUVECs was “significantly attenuated cell proliferation”. Moreover, the “cell membrane integrity by electron microscopy” value in the test on 4T1 cells [1] (30 min) is listed as “ruptured after 30 min”. For the same substance, the “cell morphology by electron microscopy” value with 4T1 cells [1] (6 h) was “apoptotic morphology”. Also, the “time to release of cytosol (calcein) after treatment” value with 4T1 cells [2] (4T1 cells stained with calcein-AM, 100 µM, representative of N = 3) is 15 to 30 min. Moreover, the “fraction of cancer cells with damaged cell membrane” value with 4T1 cells [2] (concentration significantly higher than the IC50 value) is listed as roughly 100%. The “fraction of cells with activated caspases” value in the test on caspase-3 or caspase-7 is reported as “increased over time”. Further, the “tumor growth (tumor volume)” value with 4T1 tumors (4T1 tumors, 40 mg/kg intratumoral daily from day 7, N = 15, 40 mg/kg) was “inhibited; also recorded: relatively modest response”; with CT26 tumors it was “inhibited; also recorded: highly sensitive”. Moreover, the “tumor necrosis (H&E stain)” value with 4T1 tumors (established 4T1 tumors, intratumoral injection, 24 h, representative of N = 3) is reported as “Necrosis was observed”.

Values taken from paper PMC10987543 (Cell Death Discovery, 2024).
